In data set [1] the target is T1, Aspergillus DPP-IV (UniProt Q2UH35).
T1 construct: Aspergillus DPP-IV (Enzyme System Products, SPE01)
T1 sequence (Q2UH35 1-771): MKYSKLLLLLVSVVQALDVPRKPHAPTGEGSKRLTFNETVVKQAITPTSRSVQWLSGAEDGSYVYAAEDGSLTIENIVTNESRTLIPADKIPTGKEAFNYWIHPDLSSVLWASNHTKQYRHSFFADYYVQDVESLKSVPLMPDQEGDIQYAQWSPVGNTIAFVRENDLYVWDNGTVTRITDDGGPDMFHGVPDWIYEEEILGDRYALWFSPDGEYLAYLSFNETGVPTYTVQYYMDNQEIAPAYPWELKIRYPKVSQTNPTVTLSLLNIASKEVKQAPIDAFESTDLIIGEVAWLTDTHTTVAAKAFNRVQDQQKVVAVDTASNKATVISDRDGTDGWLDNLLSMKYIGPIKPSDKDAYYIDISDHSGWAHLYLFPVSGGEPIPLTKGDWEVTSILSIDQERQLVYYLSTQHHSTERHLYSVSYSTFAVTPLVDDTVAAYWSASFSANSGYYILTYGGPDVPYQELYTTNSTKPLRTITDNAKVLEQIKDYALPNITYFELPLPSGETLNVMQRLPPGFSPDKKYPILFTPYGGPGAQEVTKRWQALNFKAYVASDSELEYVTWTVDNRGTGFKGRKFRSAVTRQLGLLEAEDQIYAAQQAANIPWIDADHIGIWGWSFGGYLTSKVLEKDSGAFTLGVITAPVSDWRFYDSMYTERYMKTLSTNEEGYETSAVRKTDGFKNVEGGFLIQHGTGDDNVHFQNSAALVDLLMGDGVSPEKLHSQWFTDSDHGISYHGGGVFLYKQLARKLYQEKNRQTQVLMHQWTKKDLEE
Nature of the data set: Aspergillus DPP-IV assay. The data set is classed as biochemical. The method, then: Using this assay, the selectivity of a compound of the invention for hDPP-I over Aspergillus DPP-IV was determined, using a fluorogenic substrate.
Aspergillus DPP-IV (Enzyme System Products, SPE01; 5 mU dissolved in 25 μL assay buffer, giving a stock with a concentration of a 0.2 mU/μL). Prior to running experiment, 5 μL of enzyme stock solution was diluted to 0.004 mU/μL with 245 μL buffer.
Gly-Pro-AFC*TFA (Enzyme System Products AF039; 10 mg) was dissolved in 1 mL DMSO, giving a 20 mM solution. Diluted further in buffer to. 1 mM.
The assay was performed in 96-well plates. 60 μL assay buffer was added to the well followed-by 10 μL 1% DMSO in assay buffer (control) or a compound of the invention (100 μM, corresponding to 10 μM in the assay). Incubated at 37° C., then 10 μL enzyme (corresponding to 0.04 mU in assay) was added, followed by 10 μL substrate (100 μM in the assay). The excitation wavelength was 400 nm, and the emission was measured at 505 nm for 10-20 minutes at 30° C. Each measurement was made in duplicate. In the software (SOFTmax Pro) used for data collection from the fluorometer (Molecular Devices: Gemini XS), it was ensured that the measured slopes were linear (R^2>0.99). Data were exported to GraphPad Prism and nonlinear regression was performed using the option Sigmoidal dose-response (variable slope).

Data set [2] deals with β-tryptase. Put plainly: Tryptase assay. The data set is classed as biochemical, human. The method, then: Using this assay, the selectivity of a compound of the invention for hDPP-I over β-tryptase was determined, using a fluorogenic substrate.
0.1 M HEPES buffer (pH 7.5) with 0.5 M NaCl.
Rh-Skin β-tryptase (Promega # G7061) was diluted to a final stock solution of 0.08 μg/μL in assay buffer.
Rh-lung β-tryptase (Promega # G5631) was diluted to a final stock solution of 0.08 μg/μL in assay buffer.
Z-ARG-AMC*HCl (BACHEM I1130; 10 mg) was dissolved in 1 mL DMSO, giving a 20 mM solution. Km was determined to be >400 μM.
The assay was performed in 96-well plates. 85 μl assay buffer was added to the well followed by 5 μL enzyme stock. Then 5 μL substrate was added, and subsequently 5 μL 4% DMSO in assay buffer (control) or a compound of the invention (10 μM in the assay) The excitation wavelength was 380 nm, and the emission was measured at 460 nm for 10-20 minutes at […] Each measurement was mad in duplicate. In the software (SOFTmax Pro) used for data collection from the fluorometer (Molecular Devices: Gemini XS), it was ensured that the measured slopes were linear (R^2>0.99).
Data were exported to GraphPad Prism and nonlinear regression was performed using the option Sigmoidal dose-response (variable slope).

Data set [3] has as its target T2, CYP2C19 (Homo sapiens, UniProt P33261).
T2 construct: purchased PanVera Vivid CYP2C19 Red Screening Kit
Put plainly: CYP2C19 assay (Vivid CYP2C19 Red Screening Kit). To be noted: 20 μM cutoff; read-out: Metabolism: CYP enzymes (20 μM cutoff or IC50) CYP2C19. The data set is classed as in vitro ADME. The method, then: Tubes thawed on ice. 2× reaction buffer dispensed (room temperature) in two eppendorf tubes (for Mix A and Mix B).
Controls or compounds of the invention: Diluted to a concentration of 50 μM. Positive control compound: α-naphthoflavone.
Negative controls: DMSO and H2O.
Mix A: 485 μL reaction buffer, 10 μL regeneration system, 5 μL Baculosome reagent. Mixed gently and placed on ice.
Mix B: 88.5 μL reaction buffer, 1.5 μL substrate, 10 μL 10 mM NADP^+.
In a 96-well plate (Costar c-3904), 40 μL of 50 μM sample dispensed. 50 μl Mix A added. Incubated 20 min. at rt. Then, 10 μl of Mix B added. Fluorescence determined (Molecular Devices, SPECTRAmax Gemini EM): Ex: 409 nm, Em: 460 nm, at 37° C. for 20 min. (Automix: 5 s, top read.).
Following the procedure for CYP1A2, using the appropriate kits below, the effect of a compound of the invention on the other CYP enzymes was determined:
Vivid® CYP2C19 Red Screening Kit from PanVera.

A short description of data set [4]: Metabolic stability in rat liver microsomes. The data set is classed as in vitro ADME. To be noted: pH 7.4; rat liver microsomes 0.3 mg/mL, test compound 1 μM, 37° C.; read-out: Metabolic stability (t1/2 in min.) Rat liver microsomes. The method, then:
Assay for Determination of Metabolic Stability is Rat Liver Microsomes
The assay was performed at Cerep (Seattle) according to the protocol described by Kuhnz et. al. (Kuhnz, W., Gieschen, H. Drug Metab. Dispos., 26, 1120-1127), using rat liver microsomes (0.3 mg/mL), test compound (1 μM), NADP (1 mM), and G6P (5 mM), and G6PDHase (1 U/mL) with 0.6% methanol/0.6% acetonitrile in water. Incubation was performed at 37° C. in phosphate buffer (50 mM, pH=7.4), and the samples were analyzed for remaining product ion (selected reaction monitoring)by HPLC-MS/MS (Thermo Finnigan) at 0, 15, 30, 45 and 60 min. intervals.
(Liver microsomes are a subcellular fraction often used to study metabolism.)

As a reminder, the IC50 is the concentration that gives 50% inhibition.

Square brackets hold non-standard residues; d marks the D form. Peptide text beside a SMILES is read from it. Phe(3-F) = N[C@@H](Cc1cccc(F)c1)C(=O)O; hPhe = N[C@@H](CCc1ccccc1)C(=O)O; Abu = CC[C@H](N)C(=O)O; azaGly = NNC(=O)O

T2 sequence (P33261 whole entry): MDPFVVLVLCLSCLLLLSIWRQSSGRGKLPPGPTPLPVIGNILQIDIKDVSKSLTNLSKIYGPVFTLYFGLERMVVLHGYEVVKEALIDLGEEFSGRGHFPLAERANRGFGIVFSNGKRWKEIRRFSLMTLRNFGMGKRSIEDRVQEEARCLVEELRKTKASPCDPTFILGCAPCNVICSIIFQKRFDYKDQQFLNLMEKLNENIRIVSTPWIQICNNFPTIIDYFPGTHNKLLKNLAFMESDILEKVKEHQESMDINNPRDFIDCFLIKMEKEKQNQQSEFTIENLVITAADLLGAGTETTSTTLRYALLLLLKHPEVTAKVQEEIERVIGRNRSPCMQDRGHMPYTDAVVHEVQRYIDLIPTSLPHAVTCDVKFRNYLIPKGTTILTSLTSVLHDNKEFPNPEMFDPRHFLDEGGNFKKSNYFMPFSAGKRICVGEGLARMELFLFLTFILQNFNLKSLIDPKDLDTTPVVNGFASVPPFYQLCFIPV

Consider `CC[C@H](N)C(=O)NNC(=O)N[C@@H](CCc1ccccc1)C(=O)N[C@@H](Cc1cccc(F)c1)C(N)=O` [Example 11, 1-(2S-2-Aminobutanoyl)-4-[2S-N-[2S-3-(m-fluorophenyl)propan-2-yl-amide]-4-phenylbutan-2-yl-amide]semicarbazide] (H-[Abu][azaGly][hPhe][Phe(3-F)]-NH2), for which, in data set [1], the “Inhibition of DPP-IV (in words)” value is on record as “does not inhibit”. Also, the half-inhibitory concentration (IC50) in data set [1] (Aspergillus DPP-IV, 10 μM cutoff, read-out: Secondary enzymatic screening (10 μM cutoff or IC50) DPP-IV) is more than 10 µM; in data set [2] (β-tryptase, 10 μM cutoff, read-out: Secondary enzymatic screening (10 μM cutoff or IC50) Tryptase) it was more than 10 µM; in data set [3], more than 20 µM. For the same molecule, in data set [2], the “Inhibition of tryptase (in words)” value was “does not inhibit”. Also, the half-life at 1 μM in data set [4] stood at 23 min.

(Values after patent US20070155803A1, “Protease inhibitors” (ProZymex A/S, priority 2003, published 2007).)
